Measurements from patent EP0562832A1, “Indole and indazole derivatives, for the treatment and prophylaxis of cerebral disorders, their preparation and their use” (priority 1992, dated 1993).
Where a name gives a salt, the structure may show the parent alone.

What follows are compounds tested against T1, acetylcholinesterase (Mus musculus, UniProt P21836) (assay: Assay of acetylcholinesterase inhibitory activity (Elman's method, mouse brain homogenate)).
T1 construct: The mouse brain was homogenised by means of a 5-fold amount of a 100 mM phosphate buffer (pH 8.0) to prepare an enzyme sample; from tissue; host or cells: brain of male ddY mice, 5 to 7 weeks old (Japan SLC)
T1 sequence (P21836 32-614): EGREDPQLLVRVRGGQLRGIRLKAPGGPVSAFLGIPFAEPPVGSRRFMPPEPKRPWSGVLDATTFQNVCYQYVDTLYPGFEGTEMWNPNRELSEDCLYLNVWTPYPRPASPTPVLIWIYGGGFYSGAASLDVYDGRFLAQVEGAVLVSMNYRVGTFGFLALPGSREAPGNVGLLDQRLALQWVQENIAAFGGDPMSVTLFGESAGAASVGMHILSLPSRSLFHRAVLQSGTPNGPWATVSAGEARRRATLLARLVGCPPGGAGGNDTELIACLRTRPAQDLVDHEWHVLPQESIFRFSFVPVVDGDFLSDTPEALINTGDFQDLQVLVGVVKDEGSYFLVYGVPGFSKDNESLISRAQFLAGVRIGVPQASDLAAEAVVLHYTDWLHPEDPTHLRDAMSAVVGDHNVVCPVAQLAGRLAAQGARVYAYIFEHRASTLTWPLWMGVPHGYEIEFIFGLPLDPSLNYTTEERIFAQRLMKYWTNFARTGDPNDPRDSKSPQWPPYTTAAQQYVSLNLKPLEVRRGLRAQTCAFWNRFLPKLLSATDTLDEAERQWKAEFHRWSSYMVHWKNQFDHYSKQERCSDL
Assay type: biochemical
`Cn1cc(C(=O)CCC2CCN(Cc3ccccc3)CC2)c2ccc(Cl)cc21` [Compound No. 1-30, 1-Methyl-3-[3-(1-benzyl-4-piperidyl)propionyl]-6-chloroindole] was tested, and the IC50 was 9 nM.
Work on `CCc1ccc2c(C(=O)CCC3CCN(Cc4ccccc4)CC3)cn(C)c2c1` [1-16] yielded an IC50 of 4 nM.
For `Cn1cc(C(=O)CCC2CCN(Cc3cccc(F)c3)CC2)c2cc(F)ccc21` [Compound No. 1-313, 1-Methyl-3-{3-[1-(3-fluorobenzyl)-4-piperidyl]propionyl}-5-fluoroindole], the IC50 was 2 nM.
`Cn1nc(C(=O)C=CC2CCN(Cc3ccccc3)CC2)c2c(Cl)cccc21` [2-23] showed an IC50 of 11 nM.
For `Cn1cc(C(=O)CCC2CCN(Cc3ccccc3)CC2)c2ccccc21` [Compound No. 1-2, 1-Methyl-3-[3-(1-benzyl-4-piperidyl)propionyl]indole], the IC50 was 3.3 nM.
`Cn1nc(C(=O)CCC2CCN(Cc3ccccc3Cl)CC2)c2ccccc21` [Compound No. 2-96, 1-Methyl-3-{3-[1-(2-chlorobenzyl)-4-piperidyl]propionyl}indazole hydrochloride] showed an IC50 of 13.9 nM.
In the case of `Cn1nc(C(=O)CCC2CCN(Cc3ccccc3)CC2)c2ccccc21` [Compound No. 2-2, 1-Methyl-3-[3-(1-benzyl-4-piperidyl)propionyl]indazole], the IC50 is reported as 10 nM.
Work on `Cn1cc(C(=O)CCC2CCN(Cc3ccccc3)CC2)c2ccccc21` [Compound No. 1-4, 1-Methyl-3-[3-(1-benzyl-4-piperidyl)propionyl]indole oxalate] yielded an IC50 of 10 nM.
For `Cn1cc(C(=O)CCC2CCN(Cc3cccc(F)c3)CC2)c2cc(Cl)ccc21` [Compound No. 1-309, 1-Methyl-3-{3-[1-(3-fluorobenzyl)-4-piperidyl]propionyl}-5-chloroindole], the IC50 was 8.2 nM.
`Cc1ccc2c(C(=O)C=CC3CCN(Cc4ccccc4)CC3)nn(C)c2c1` [Compound No. 2-9] gave an IC50 of 14 nM.
With `Cn1cc(C(=O)CCC2CCN(Cc3cccc(Cl)c3)CC2)c2cc(Cl)ccc21` [Compound No. 1-304, 1-Methyl-3-{3-[1-(3-chlorobenzyl)-4-piperidyl]propionyl}-5-chloroindole hydrochloride] the IC50 was 7.5 nM.
For `Cn1nc(C(=O)CCC2CCN(Cc3ccccc3)CC2)c2c(Cl)cccc21` [2-24], the IC50 was 10 nM.
`Cn1nc(C(=O)CCC2CCN(Cc3ccccc3)CC2)c2ccccc21` [Compound No. 2-3, 1-Methyl-3-[3-(1-benzyl-4-piperidyl)propionyl]indazole hydrochloride] gave an IC50 of 12 nM.
Compound `Cn1cc(C(=O)CCC2CCN(Cc3cccc(F)c3)CC2)c2cc(F)ccc21` [Compound No. 1-314, 1-Methyl-3-{3-[1-(3-fluorobenzyl)-4-piperidyl]propionyl}-5-fluoroindole hydrochloride] has an IC50 of 3.4 nM.
`Cn1cc(C(=O)CCC2CCN(Cc3cccc(Cl)c3)CC2)c2ccccc21` [Compound No. 1-85, 1-Methyl-3-{3-[1-(3-chlorobenzyl)-4-piperidyl]propionyl}indole hydrochloride] gave an IC50 of 6.5 nM.
For `Cn1cc(C(=O)CCC2CCN(Cc3cccc(F)c3)CC2)c2ccccc21` [Compound No. 1-78, 1-Methyl-3-{3-[1-(3-fluorobenzyl)-4-piperidyl]propionyl}indole], the IC50 was 8 nM.
For `Cn1cc(C(=O)CCC2CCN(Cc3ccccc3)CC2)c2cc(Cl)ccc21` [Compound No. 1-28, 1-Methyl-3-[3-(1-benzyl-4-piperidyl)propionyl]-5-chloroindole], the IC50 was 4 nM.
Compound `Cn1nc(C(=O)CCC2CCN(Cc3cccc(Cl)c3)CC2)c2ccccc21` [Compound No. 2-99, 1-Methyl-3-{3-[1-(3-chlorobenzyl)-4-piperidyl]-propionyl}indazole hydrochloride] has an IC50 of 31.7 nM.
`Cn1cc(C(=O)CCC2CCN(Cc3cccs3)CC2)c2ccccc21` [Compound No. 1-116, 1-Methyl-3-{3-[1-(2-thienylmethyl)-4-piperidyl]propionyl}indole] was tested, and the IC50 was 10 nM.
`Cn1cc(C(=O)CCC2CCN(Cc3cccc(F)c3)CC2)c2cc(F)ccc21` [1-315, 1-Methyl-3-{3-[1-(3-fluorobenzyl)-4-piperidyl]propionyl}-5-fluoroindole oxalate] gave an IC50 of 2.3 nM.
`Cn1cc(C(=O)CCC2CCN(Cc3ccccc3)CC2)c2cc(F)ccc21` [Compound No. 1-40, 1-Methyl-3-[3-(1-benzyl-4-piperidyl)propionyl]-5-fluoroindole] was tested, and the IC50 was 4 nM.
`Cc1ccc2c(c1)c(C(=O)CCC1CCN(Cc3ccccc3)CC1)nn2C` [2-8] showed an IC50 of 13 nM.
